Results taken from patent US20200038513A1, “MODULATORS OF FAK PROTEOLYSIS AND ASSOCIATED METHODS OF USE” (ARVINAS OPERATIONS, INC., priority 2018, published 2020).

Test system: MDA-MB-231 cells
Test: RPPA (reverse phase protein array)
Type: cell-based, human
Settings: 500nM
Description: RPPA analysis was performed by MD Anderson Cancer Center RPPA core facility.
Examination of the Molecular Signaling Events) and/or Downstream Pathways Responsible for the Migration and Invasion Effects Observed by Exemplary Compound Treatment. To pinpoint these observations to a molecular signaling event or specific downstream pathway, reverse phase protein array (RPPA) analysis was performed (Table 4).

SMILES: Cc1ncsc1-c1ccc(CNC(=O)[C@@H]2C[C@@H](O)CN2C(=O)[C@@H](NC(=O)CCOCCOc2ccc(Nc3ncc(C(F)(F)F)c(NCc4cccc(N(C)S(C)(=O)=O)c4)n3)cc2)C(C)(C)C)cc1 [Compound 102, (2S,4R)-1-((S)-3,3-dimethyl-2-(3-(2-(4-((4-((3-(N-methylmethylsulfonamido)benzyl)amino)-5-(trifluoromethyl)pyrimidin-2-yl)amino)phenoxy)ethoxy)propanamido)butanoyl)-4-hydroxy-N-(4-(4-methylthiazol-5-yl)benzyl)pyrrolidine-2-carboxamide]
- rel. Protein level, 4E-BP1: 110.6%
- rel. Protein level, 4E-BP1_pS65: 92.3%
- rel. Protein level, 14-3-3-beta: 100.5%
- rel. Protein level, 14-3-3-zeta: 105.4%
- rel. Protein level, 53BP1: 111.3%
- rel. Protein level, A-Raf: 106.5%
- rel. Protein level, ACC1: 103.3%
- rel. Protein level, ACC_pS79: 95.4%
- rel. Protein level, ADAR1: 121.2%
- rel. Protein level, AMPK-a2_pS345: 97.2%
- rel. Protein level, AMPKa: 105.1%
- rel. Protein level, AMPKa_pT172: 92.7%
- rel. Protein level, AR: 85.0%
- rel. Protein level, ARID1A: 121.1%
- rel. Protein level, ATM: 106.8%
- rel. Protein level, ATM_pS1981: 99.7%
- rel. Protein level, ATR_pS428: 99.2%
- rel. Protein level, Akt: 101.7%
- rel. Protein level, Akt_pS473: 74.2%
- rel. Protein level, Akt_pT308: 94.2%
- rel. Protein level, Annexin-I: 117.8%
- rel. Protein level, Annexin-VII: 110.0%
- rel. Protein level, Atg3: 98.3%
- rel. Protein level, Atg7: 100.8%
- rel. Protein level, Aurora-B: 92.3%
- rel. Protein level, Axl: 94.7%
- rel. Protein level, B7-H4: 97.5%
- rel. Protein level, B-Raf: 110.9%
- rel. Protein level, B-Raf_pS445: 108.0%
- rel. Protein level, BAP1: 96.8%
- rel. Protein level, BRD4: 118.7%
- rel. Protein level, Bad_pS112: 102.3%
- rel. Protein level, Bak: 100.7%
- rel. Protein level, Bax: 110.5%
- rel. Protein level, Bc1-xL: 97.6%
- rel. Protein level, Bc12: 92.8%
- rel. Protein level, Beclin_l: 100.0%
- rel. Protein level, BiP-GRP78: 103.0%
- rel. Protein level, Bid: 102.8%
- rel. Protein level, Bim: 102.9%
- rel. Protein level, C-Raf: 100.8%
- rel. Protein level, C-Raf_pS338: 90.7%
- rel. Protein level, CD4: 101.8%
- rel. Protein level, CD20: 92.3%
- rel. Protein level, CD29: 104.7%
- rel. Protein level, CD31: 98.2%
- rel. Protein level, CD44: 106.6%
- rel. Protein level, CD45: 97.9%
- rel. Protein level, CD49b: 116.5%
- rel. Protein level, CD134: 99.0%
- rel. Protein level, CDK1_pT14: 94.6%
- rel. Protein level, COG3: 107.9%
- rel. Protein level, Caspase-3: 106.7%
- rel. Protein level, Caspase-7-cleaved-: 113.1%
- rel. Protein level, Caspase-8: 102.4%
- rel. Protein level, Caveolin-1: 141.0%
- rel. Protein level, Chk2: 94.4%
- rel. Protein level, Chk2_pT68: 103.4%
- rel. Protein level, Chkl: 92.3%
- rel. Protein level, Chkl_pS296: 96.6%
- rel. Protein level, Claudin-7: 101.6%
- rel. Protein level, Collagen-VI: 93.4%
- rel. Protein level, Connexin-43: 92.3%
- rel. Protein level, Cox2: 171.3%
- rel. Protein level, Cox-IV: 104.5%
- rel. Protein level, Creb: 103.4%
- rel. Protein level, Cyclin-B1: 96.7%
- rel. Protein level, Cyclin-D1: 105.2%
- rel. Protein level, Cyclin-D3: 94.7%
- rel. Protein level, Cyclin-E1: 110.5%
- rel. Protein level, Cyclophilin-F: 97.6%
- rel. Protein level, D-a-Tubulin: 95.2%
- rel. Protein level, DJ1: 103.5%
- rel. Protein level, DM-Histone-H3: 108.5%
- rel. Protein level, DM-K9-Histone-H3: 111.9%
- rel. Protein level, DUSP4: 142.6%
- rel. Protein level, E2F1: 98.2%
- rel. Protein level, E-Cadherin: 92.7%
- rel. Protein level, EGFR: 98.2%
- rel. Protein level, EGFR_pY1173: 101.5%
- rel. Protein level, EMA: 109.4%
- rel. Protein level, ENY2: 95.1%
- rel. Protein level, ER: 98.1%
- rel. Protein level, ER-a_pS118: 109.9%
- rel. Protein level, ERCC1: 93.6%
- rel. Protein level, ERCC5: 103.3%
- rel. Protein level, Elk1_pS383: 97.5%
- rel. Protein level, Ets-1: 97.7%
- rel. Protein level, FAK: 55.4%
- rel. Protein level, FAK_pY397: 86.4%
- rel. Protein level, FASN: 92.6%
- rel. Protein level, FOXM1: 92.4%
- rel. Protein level, Fibronectin: 103.9%
- rel. Protein level, FoxO3a: 100.5%
- rel. Protein level, FoxO3a_pS318_S321: 96.0%
- rel. Protein level, G6PD: 97.7%
- rel. Protein level, GAPDH: 99.4%
- rel. Protein level, GATA3: 97.2%
- rel. Protein level, GATA-6: 99.4%
- rel. Protein level, GCLM: 99.9%
- rel. Protein level, GCN5L2: 99.4%
- rel. Protein level, GSK-3a-b: 107.2%
- rel. Protein level, GSK-3a-b_pS21_S9: 97.0%
- rel. Protein level, Gab2: 100.5%
- rel. Protein level, Glutamate-D1-2: 95.5%
- rel. Protein level, Glutaminase: 111.5%
- rel. Protein level, Granzyme-B: 101.4%
- rel. Protein level, Gys: 111.6%
- rel. Protein level, Gys_pS641: 105.2%
- rel. Protein level, H2AX_pS140: 117.7%
- rel. Protein level, HER2: 106.9%
- rel. Protein level, HER2_pY1248: 97.5%
- rel. Protein level, HER3: 102.8%
- rel. Protein level, HER3_pY1289: 96.9%
- rel. Protein level, HES1: 92.3%
- rel. Protein level, HLA-DR-DP-DQ-DX: 101.7%
- rel. Protein level, HSP27: 96.5%
- rel. Protein level, HSP27_pS82: 95.4%
- rel. Protein level, HSP70: 105.2%
- rel. Protein level, Heregulin: 113.3%
- rel. Protein level, Hexokinase-II: 99.4%
- rel. Protein level, Hif-l-alpha: 130.8%
- rel. Protein level, Histone-H3: 131.4%
- rel. Protein level, IGF1R_pY1135_Y1136: 97.2%
- rel. Protein level, IGFBP2: 89.0%
- rel. Protein level, IGFRb: 98.5%
- rel. Protein level, INPP4b: 98.0%
- rel. Protein level, IR-b: 111.4%
- rel. Protein level, IRF-1: 111.6%
- rel. Protein level, IRS1: 101.4%
- rel. Protein level, JNK2: 103.8%
- rel. Protein level, JNK_pT183_Y185: 98.5%
- rel. Protein level, Jagged1: 111.0%
- rel. Protein level, Jak2: 107.2%
- rel. Protein level, LC3A-B: 106.5%
- rel. Protein level, LDHA: 123.8%
- rel. Protein level, LRP6_pS1490: 128.4%
- rel. Protein level, Lck: 96.8%
- rel. Protein level, MAPK_pT202-Y204: 93.7%
- rel. Protein level, MCT4: 126.7%
- rel. Protein level, MDM2_pS166: 94.8%
- rel. Protein level, MEK1: 106.4%
- rel. Protein level, MEK1_p_S217-S221: 95.0%
- rel. Protein level, MERIT40_pS29: 92.3%
- rel. Protein level, MIF: 107.4%
- rel. Protein level, MIG6: 106.7%
- rel. Protein level, MMP2: 103.9%
- rel. Protein level, MMP14-[EP1264Y]: 137.5%
- rel. Protein level, MMP-14: 120.9%
- rel. Protein level, MSH6: 97.8%
- rel. Protein level, MSI2: 93.5%
- rel. Protein level, Mcl-1: 89.4%
- rel. Protein level, Merlin: 94.1%
